A short description of data set [1]: Pharmacokinetic assay in mice, blood-brain barrier penetration analysis (Kp). The settings on record: male, mouse, ICR mice, PO single dose 10 mg/kg, brain vs plasma, read-out: Kp (4 h after administration). It is filed as in vivo. As to the method:
The purpose of this trial is to study the pharmacokinetic behavior of some compounds of the present invention, and the administration method is: ICR mice were orally administered (PO) a single dose, at a dose of 10 mg/kg.
ICR mice male N=3 original source: Shanghai Sippr-Bk Lab Animal Co., Ltd.
The compounds were weighed and dissolved in 20% PG+10% Solutol HS15+70% pH 3 citrate buffer, respectively, shaken well and sonicated to prepare colorless clear solutions. 9 mice were administered orally after an overnight fast. The dose was 10 mg/kg.
• 1) About 90 μL blood was collected via the submandibular vein per time point, heparin sodium anticoagulant was added, the sample was placed on ice after collection, and plasma was centrifuged within 1 hour (centrifugation conditions: 8,000 rpm, 6 minutes, 2-8° C.). • 2) The blood collection time points were 1, 4, and 24 h. The samples were stored in a refrigerator at −20° C. • 3) The plasma sample was 40 μL, 160 μL of ice-cold acetonitrile containing internal standard was added, vortexed for 3 minutes, and centrifuged at 11,000 rpm for 5 minutes. • 4) 100 μL of the supernatant was taken and added to 100 μL of water, 5 μL of the sample was taken and injected into LC/MS/MS for analysis.
AUC or concentration in brain or plasma measured by using the above method was used to calculate the Kp. Kp refers to the relationship between drug concentrations in brain and blood and is used to evaluate the ability of a drug to penetrate the blood-brain barrier. Post-dose Kp was calculated by the following formula: […]

In data set [2] the test system is HCT116 MTAP wild-type cells. The experiment in a line: Human colon cancer HCT116 cell proliferation inhibition test (CellTiter-Glo, 6 days), MTAP wild-type cells. The format is cell-based. To be noted: HCT-116, 144 h. Put shortly:
(§1)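 Cells seeded overnight in McCoy's 5A with 10% FBS, then exposed to compound from 10 μM top concentration, 4-fold dilutions, 9 points, for 6 days at 37 °C, 5% CO2. Viability by CellTiter-Glo luminescence; IC50 from 4-parameter dose-response curve.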
(In ATP-based viability assays light output follows the ATP content of the culture.)

Data set [3] has as its system HCT116 MTAP knockout cells. The experiment in a line: Human colon cancer HCT116 cell proliferation inhibition test (CellTiter-Glo, 6 days), MTAP knockout cells. To be noted: HCT-116, 144 h. It is filed as cell-based. Put shortly:
as §1

The structures appear in SMILES notation.

Usually IC50 stands for the concentration that inhibits the measured activity by half. Read a low IC50 as higher potency. In the case of `Nc1nc2cc(F)c(C(=O)N(CC3CC3)[C@@H]3COc4cc(C(F)(F)F)ccc43)cc2c2cnccc12` [Example 234, (S)-5-amino-N-(cyclopropylmethyl)-8-fluoro-N-(6-(trifluoromethyl)-2,3-dihydrobenzofuran-3-yl)benzo[c][2,6]naphthyridin-9-carboxamide], the Kp at 4 h in data set [1] was determined as 0.7. The values for the 50% inhibitory concentration (IC50) in data set [2] and in data set [3] were 224 nM and 20 nM, respectively.
Regarding `Nc1nc2cc(Cl)c(C(=O)N(CC3CC3)[C@@H]3COc4cc(C(F)(F)F)ccc43)cc2c2cnccc12` [Example 235, (S)-5-amino-8-chloro-N-(cyclopropylmethyl)-N-(6-(trifluoromethyl)-2,3-dihydrobenzofuran-3-yl)benzo[c][2,6]naphthyridin-9-carboxamide], in data set [1], the Kp at 4 h was determined as 0.7. Besides, the half-maximal inhibitory concentration (IC50) in data set [2] amounted to 176 nM; in data set [3], 21 nM.
On the same counts, the results for `CN(C(=O)c1ccc2nc(N)c3ccncc3c2c1)[C@@H]1COc2cc(C(F)(F)F)ccc21` [Reference Compound 2, reference compound] are 0.1, 702 nM and 25 nM.
